Tests used:
[1] = tested on: alkaline phosphatase (ALP); details: 154-analog library, 10 μM, C2C12, duplicate
Text: (§1) To identify small-molecule activators of osteoblast differentiation, we measured ALP activity using a fluorescent emission assay as a reporter for enzymatic digestion of ALP substrate in lysates derived from C2C12 myoblasts. […] Therefore, before screening, the assay was calibrated using recombinant human BMP4 protein as a positive control. Compounds were robotically deposited onto 384-well plates and then overlaid by C2C12 cells for a 4-day culture period, followed by lysis and fluorescent substrate assays (FIG. 1A; Table 1). To ensure uniformity, C2C12 cells were maintained in normal culture medium containing 10% fetal bovine serum, and lysis and substrate addition achieved using a microplate multidrop device. The primary screen (Table 2) encompassed greater than 47,000 small molecules tested at a final concentration of 10 μM.
(§2) For the primary screen, library compounds were distributed onto 384-well microplates (Greiner Bio-One 781091) at a final concentration of 10 μM in culture medium using a Perkin Elmer Janus automated workstation and WinPrep Version 4.8.3.315. Positive (rhBMP4, 1 ng/ml, R&D Systems) and negative controls (DMSO, 0.2%) were manually added to each plate by multichannel pipet. C2C12 cells were seeded onto compounds and controls at a density of 2000/well using a Thermo Multidrop Combi reagent dispenser and cultured for 4 days at 37° C., 5% CO2. Culture medium was aspirated using a BioTek EL406 plate washer and cells were lysed in RIPA buffer (Millipore 20-188) at ambient temperature for 10 minutes. 10 μl fluorescent alkaline phosphatase substrate (AttoPhos, Promega S1000) was added to lysates and incubated an additional 10 minutes before measuring the fluorescence (Excitation 450 nm/Emission 580 nm) on a BioTek Synergy Neo2 stacking microplate reader. Plates were processed and relative fluorescence raw values measured in stacks of 10-20. The data were processed using Collaborative Drug Discovery web-based software (CDD Vault) to determine Z score calculated on DMSO control wells and percent activation normalized against positive and negative controls (NPA). Cherry-picked hit candidates were re-tested in concentration response experiments, from which 4 candidates were chosen and purchased for further testing from either ChemBridge or Enamine, based on availability.
(§3) We also purchased a library of 154 structural chemical analogs assembled by ChemBridge Corp. from available screening library compounds.

[2] = tested on: alkaline phosphatase (ALP); assay: cells; details: Mus musculus, C2C12, 96 h
Text: as §1, §2, §3

Row | Compound | RFU Score (10 μM) [1] | activation at 10 µM [2]
1 | COc1cccc(-c2[nH]cnc2-c2ccccc2)c1OCCCn1ccnc1 [RU-0424482] | 567 | 10.1%
2 | CO[C@@H]1CCOC[C@H]1NC(=O)c1[nH]cnc1-c1ccccc1 [RU-0424483] | 491 | 7.37%
3 | Cc1nc(C2CCCN(C(=O)c3[nH]cnc3-c3ccccc3)C2)no1 (stereo not drawn) [RU-0424484] | 330 | 1.72%
4 | CCc1cn[nH]c1C1CCN(C(=O)c2[nH]cnc2-c2ccccc2)CC1 [RU-0424485] | 515 | 8.24%
5 | O=C(O)C1CN(C(=O)c2[nH]cnc2-c2ccccc2)CCN1 (stereo not drawn) [RU-0424486] | 438 | 5.51%
6 | Cc1cc(C)c2[nH]c(=O)c(CN(Cc3cccnc3)C3CC3)cc2c1 [RU-0424487] | 501 | 7.72%
7 | Cc1cc(C)c2[nH]c(=O)c(CN3CCc4[nH]cnc4C3C(=O)O)cc2c1 (stereo not drawn) [RU-0424488] | 462 | 6.37%
8 | O=C(c1[nH]cnc1-c1ccccc1)N1CCC(Cc2cccnc2)CC1 [RU-0424489] | 551 | 9.48%
9 | O=C(N[C@H]1CC[C@H]1NC1CCOCC1)c1[nH]cnc1-c1ccccc1 [RU-0424490] | 449 | 5.91%
10 | Cc1cc(C)c2[nH]c(=O)c(CN3C[C@@H]4CCN(C)[C@@H]4C3)cc2c1 [RU-0424491] | 498 | 7.63%
11 | Cc1cc(C)c2[nH]c(=O)c(-c3nccn3CCSc3cnn[nH]3)cc2c1 [RU-0424492] | 455 | 6.11%
12 | CC1(C#N)CCN(C(=O)c2ccc(-c3[nH]cnc3-c3ccccc3)cc2)CC1 [RU-0424493] | 551 | 9.53%
13 | COCC1(N(C)C(=O)c2ccc(-c3[nH]cnc3-c3ccccc3)cc2)CC1 [RU-0424494] | 501 | 7.74%
14 | Cc1cc(C)c2[nH]c(=O)c(CN3[C@@H]4CC[C@H]3C[C@@H](O)C4)cc2c1 [RU-0424495] | 486 | 7.21%
15 | Cc1ccnc(CC(C)N(C)Cc2cc3cc(C)cc(C)c3[nH]c2=O)c1 (stereo not drawn) [RU-0424496] | 516 | 8.27%
16 | O=C(O)CNc1cc(-c2[nH]cnc2-c2ccccc2)c2cc[nH]c2n1 [RU-0424497] | 450 | 5.93%
17 | Cc1cc(C)c2[nH]c(=O)c(CN(C)CCn3ccnc3C)cc2c1 [RU-0424498] | 486 | 7.21%
18 | Cc1cc(C)c2[nH]c(=O)c(CN3CC(c4ccccn4)C3)cc2c1 [RU-0424499] | 498 | 7.62%
19 | Cc1cc(C)c2[nH]c(=O)c(CN3CCC(O)(CN(C)C)C3)cc2c1 (stereo not drawn) [RU-0424500] | 523 | 8.52%
20 | Cc1cc(C)c2[nH]c(=O)c(CN3C[C@H](O)C[C@H]3C(=O)O)cc2c1 [RU-0424501] | 487 | 7.25%
21 | COCCCN1CCN(Cc2cc3cc(C)cc(C)c3[nH]c2=O)CC1 [RU-0424502] | 502 | 7.78%
22 | CO[C@@H]1CC[C@@]2(OC)CCN(C(=O)c3[nH]cnc3-c3ccccc3)[C@H]2C1 [RU-0424503] | 436 | 5.45%
23 | N#Cc1ccccc1-c1ccc(-c2[nH]cnc2-c2ccccc2)o1 [RU-0424504] | 309 | 0.96%
24 | O=C(c1[nH]cnc1-c1ccccc1)N1CCc2onc(-c3cccc(F)c3)c2C1 [RU-0424505] | 326 | 1.56%

Row | Compound | RFU Score (10 μM) [1] | activation at 10 µM [2]
25 | Cc1cc(C)c2[nH]c(=O)c(CN3CCCC(N(C)C)CC3)cc2c1 (stereo not drawn) [RU-0424506] | 364 | 2.9%
26 | O=C(c1[nH]cnc1-c1ccccc1)N1CCC2(CCCO2)CC1 [RU-0424507] | 366 | 2.99%
27 | Cc1cc(C)c2[nH]c(=O)c(CN(C)C(C)C(=O)N(C)C)cc2c1 (stereo not drawn) [RU-0424508] | 504 | 7.85%
28 | Cc1cc(C)c2[nH]c(=O)c(CN(C)CCCn3cccn3)cc2c1 [RU-0424509] | 486 | 7.19%
29 | Cc1cc(C)c2[nH]c(=O)c(CN(C)Cc3cnccn3)cc2c1 [RU-0424510] | 484 | 7.14%
30 | Nc1nnc(C2CCN(C(=O)c3[nH]cnc3-c3ccccc3)CC2)[nH]1 [RU-0424511] | 467 | 6.54%
31 | O=C(c1[nH]cnc1-c1ccccc1)N1CCOC(C(F)(F)F)C1 (stereo not drawn) [RU-0424512] | 455 | 6.12%
32 | CO[C@@]12CC[C@H](O)C[C@@H]1N(C(=O)c1[nH]cnc1-c1ccccc1)CC2 [RU-0424513] | 435 | 5.42%
33 | CCCn1cc(NC(=O)Cn2cc(-c3[nH]cnc3-c3ccccc3)cn2)nn1 [RU-0424514] | 386 | 3.69%
34 | Cc1cc(C)c2[nH]c(=O)c(CN(C)CCc3cnn(C)c3)cc2c1 [RU-0424515] | 314 | 1.16%
35 | O=C(c1[nH]cnc1-c1ccccc1)N1CCCC(c2ccncn2)C1 (stereo not drawn) [RU-0424516] | 392 | 3.89%
36 | CNC(=O)[C@@H]1C[C@H](N)CN1Cc1cc2cc(C)cc(C)c2[nH]c1=O [RU-0424517] | 527 | 8.64%
37 | Cc1cc(C)c2[nH]c(=O)c(-c3nccn3Cc3ccco3)cc2c1 [RU-0424518] | 484 | 7.14%
38 | O=C(NCc1nc(-c2cnccn2)n[nH]1)c1[nH]cnc1-c1ccccc1 [RU-0424519] | 561 | 9.84%
39 | CNC(=O)CC1C(=O)NCCN1Cc1cc2cc(C)cc(C)c2[nH]c1=O (stereo not drawn) [RU-0424520] | 532 | 8.81%
40 | Cc1noc(C(C)N(C)C(=O)c2[nH]cnc2-c2ccccc2)n1 (stereo not drawn) [RU-0424521] | 604 | 11.3%
41 | CO[C@H]1CC[C@@]2(OC)CCN(C(=O)c3[nH]cnc3-c3ccccc3)[C@H]2C1 [RU-0424522] | 458 | 6.21%
42 | O=C(c1[nH]cnc1-c1ccccc1)N1CCC(Oc2ccccc2)C1 (stereo not drawn) [RU-0424523] | 419 | 4.84%
43 | O=C(c1[nH]cnc1-c1ccccc1)N(Cc1cocn1)Cc1cocn1 [RU-0424524] | 549 | 9.42%
44 | Cc1cc(C)c2[nH]c(=O)c(CN3CCN(Cc4noc(C)n4)CC3)cc2c1 [RU-0424525] | 563 | 9.94%
45 | CCn1nc(C(=O)O)c2c1CCN(C(=O)c1[nH]cnc1-c1ccccc1)C2 [RU-0424526] | 545 | 9.28%
46 | CN(C)C1=NC2(CCN(C(=O)c3[nH]cnc3-c3ccccc3)CC2)C(=O)N1 [RU-0424527] | 575 | 10.5%
47 | CO[C@@]12CC[C@H](O)C[C@@H]1N(Cc1cc3cc(C)cc(C)c3[nH]c1=O)CC2 [RU-0424528] | 538 | 9.03%
48 | CN(CC1COCCO1)C(=O)c1ccc(-c2[nH]cnc2-c2ccccc2)cc1 (stereo not drawn) [RU-0424529] | 504 | 7.85%

Reference: patent US11478466B2, “Small molecule promoting osteoblast differentiation” (Cornell University, priority 2019, dated 2022)
